In publication PMC3782081 (Cell, 2012):

How the values were obtained:
Format in all cases: cell-based
[1] = target: T1, UCP1 (uncoupling protein 1) (Mus musculus, UniProt P12242); assay: whole-mitoplast patch-clamp, inhibition by […] GDP in the bath
T1 sequence (P12242 1-307): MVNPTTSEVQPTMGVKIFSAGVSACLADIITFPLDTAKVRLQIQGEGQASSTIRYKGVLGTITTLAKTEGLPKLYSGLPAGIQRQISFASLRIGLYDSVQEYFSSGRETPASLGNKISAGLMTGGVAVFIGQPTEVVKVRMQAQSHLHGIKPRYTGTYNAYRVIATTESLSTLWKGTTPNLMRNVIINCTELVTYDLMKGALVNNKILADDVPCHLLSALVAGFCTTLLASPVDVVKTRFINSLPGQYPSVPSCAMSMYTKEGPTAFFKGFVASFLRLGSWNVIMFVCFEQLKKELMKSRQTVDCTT

[2] = target: T1, UCP1 (uncoupling protein 1); assay: whole-mitoplast patch-clamp, inhibition by […] in the bath; conditions: read-out: % inhibition at 4 μM
[3] = target: T1, UCP1 (uncoupling protein 1); assay: whole-mitoplast patch-clamp, inhibition of IUCP1 reactivated with exogenous OA; conditions: read-out: % inhibition at 50 μM

Nc1nc2c(ncn2[C@@H]2O[C@H](COP(=O)(O)OP(=O)(O)O)[C@@H](O)[C@H]2O)c(=O)[nH]1 [GDP] was tested, and the “whole-mitoplast patch-clamp, inhibition by 1 mM GDP in the bath” value [1] was “elicited a large-amplitude current that was strongly inhibited by the classic UCP1 inhibitor GDP (Figure 1B)”.
Molecule CCCCCCCC/C=C\CCCCCCCC(=O)SCCNC(=O)CCNC(=O)[C@H](O)C(C)(C)COP(=O)(O)OP(=O)(O)OC[C@H]1O[C@@H](n2cnc3c(N)ncnc32)[C@H](O)[C@@H]1OP(=O)(O)O [oleoyl-CoA] has an inhibition at 4 µM [2] of 92%.
Molecule O=C1NC(=O)/C(=C/c2ccc(C(=O)NC[C@@H]3C[C@@H](SC(c4ccccc4)(c4ccccc4)c4ccccc4)CN3C(=O)c3ccccc3C(=O)c3ccc(F)cc3F)cc2)S1 [pyrrophenone] has an inhibition at 50 µM [3] of 77%.
